These results are taken from ChEMBL document CHEMBL1157914, “5,5'-substituted indirubin-3'-oxime derivatives as potent cyclin-dependent kinase inhibitors with anticancer activity” (J Med Chem, 2010).

The nature of data set [1]: Selectivity ratio for CDK2/cyclinE over CDK1/cyclin B.
Another data set has as its system KB. The data set can be described thus: Antiproliferative activity against human KB cells after 3 days by SRB assay. Type of data set: functional, cell-based. As to conditions: 72 h.
Data set [2] concerns the target Cyclin-dependent kinase 2/cyclin E1 (Homo sapiens, UniProt P24941). Briefly: Inhibition of CDK2/cyclin E. Type of data set: protein-complex assay.
Data set [3] can be described thus: Antiproliferative activity against human […] cells after 3 days by SRB assay. Type of data set: functional, cell-based. The following applies: 72 h.
For the next data set, the system named is A549. Briefly: Antiproliferative activity against human A549 cells after 3 days by SRB assay. As to conditions: A549, 72 h. Type of data set: functional, cell-based. (In general: In SRB staining, fixed cells bind dye roughly in proportion to their protein.)
The subject of a further data set is SNU-638. The data set can be described thus: Antiproliferative activity against human SNU638 cells after 3 days by SRB assay. Type of data set: functional, cell-based. As to conditions: SNU-638, 72 h.
Another data set relates to MCF7. The data set can be described thus: Antiproliferative activity against human MCF7 cells after 3 days by SRB assay. Type of data set: functional, cell-based. The following applies: MCF7, 72 h.
Another data set has as its system K562. Briefly: Antiproliferative activity against human K562 cells after 3 days by SRB assay. Type of data set: functional, cell-based. The following applies: K562, 72 h.
The target in data set [4] is Cyclin-dependent kinase 2/cyclin E1 (Homo sapiens) (UniProt P24864+P24941). Briefly: Inhibition of CDK2/cyclin E as percent residual activity. Type of data set: protein-complex assay. Set-up: Residual activity / inhibition: concentration or dose not given beside the values.
The next data set deals with HT-1080. The data set can be described thus: Antiproliferative activity against human HT1080 cells after 3 days by SRB assay. Type of data set: functional, cell-based. As to conditions: HT-1080, 72 h.
Data set [5] has as its target Cyclin-dependent kinase 1/cyclin B1 (Homo sapiens) (UniProt P06493+P14635). Briefly: Inhibition of CDK1/cyclin B at 1 uM after 40 mins by lequid scintillation counting. Type of data set: protein-complex assay.
A short description of data set [6]: Aqueous solubility of compound in water. Type of data set: physicochemical. The following applies: buffer.
Data set [7] in a line: Solubility of compound in 3 equimolar NaOH and 0.1 N NaHCO3 buffer. Type of data set: physicochemical.
The nature of data set [8]: Solubility of compound in 3 equimolar NaOH and distilled water. Type of data set: physicochemical. As to conditions: buffer.
Data set [9] in a line: Solubility of compound in 2 equimolar NaOH and distilled water. As to conditions: buffer. Type of data set: physicochemical.

SMILES strings stand for the structures. pIC50: −log10 of the molar value. Active and inactive are the calls of the source. The rule behind the calls is not given here.

Chain of Cyclin-dependent kinase 1/cyclin B1 (Homo sapiens) (P06493 whole entry, looked up): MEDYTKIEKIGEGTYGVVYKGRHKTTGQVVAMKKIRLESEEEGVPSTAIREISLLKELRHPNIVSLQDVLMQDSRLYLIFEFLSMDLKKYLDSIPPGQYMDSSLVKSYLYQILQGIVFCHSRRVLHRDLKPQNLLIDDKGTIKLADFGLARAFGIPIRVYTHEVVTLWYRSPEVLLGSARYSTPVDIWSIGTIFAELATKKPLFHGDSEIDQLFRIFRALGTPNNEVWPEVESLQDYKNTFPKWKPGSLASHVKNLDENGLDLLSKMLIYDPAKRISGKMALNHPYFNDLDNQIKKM
Chain of Cyclin-dependent kinase 1/cyclin B1 (Homo sapiens) (P14635 whole entry, looked up): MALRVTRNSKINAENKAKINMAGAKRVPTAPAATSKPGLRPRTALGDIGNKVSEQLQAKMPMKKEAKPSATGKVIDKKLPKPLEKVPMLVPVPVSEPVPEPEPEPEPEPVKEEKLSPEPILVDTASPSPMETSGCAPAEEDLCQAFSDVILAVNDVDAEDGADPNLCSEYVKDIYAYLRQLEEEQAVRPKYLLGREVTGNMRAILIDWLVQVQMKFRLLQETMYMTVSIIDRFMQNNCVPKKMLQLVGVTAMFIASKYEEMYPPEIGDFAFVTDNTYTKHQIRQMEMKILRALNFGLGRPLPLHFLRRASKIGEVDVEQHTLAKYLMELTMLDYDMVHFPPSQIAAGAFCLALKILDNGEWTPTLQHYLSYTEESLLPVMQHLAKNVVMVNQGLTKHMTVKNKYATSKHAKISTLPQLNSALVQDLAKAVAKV

As for `O=C1Nc2ccc(F)cc2/C1=C1/Nc2ccc(Cl)cc2/C1=N/O`, the Selectivity ratio in data set [1] was found to be 6. Moreover, the negative logarithm of the IC50 (pIC50) (in general, the IC50 on a negative log10 scale, so that one unit is a factor of ten) in the data set on KB is 5.44; in [2] it was 8.00; in data set [3], 5.76; with A549, 4.72; with SNU-638, 5.64; in the data set on MCF7 it was 5.45. Further, the pIC50 was 4.83 with K562 and 5.44 in the data set on HT-1080. This compound gave a Residual activity in data set [4] of 90%.

Regarding `O=C1Nc2ccc(OC(F)(F)F)cc2/C1=C1/Nc2ccc(Cl)cc2/C1=N/O`, the Selectivity ratio in [1] amounted to 6. In addition, the pIC50 is 5.55 in the data set with KB; 7.12 in data set [2]; 5.42 in data set [3]; below 4.70 in the data set with A549; 5.57 in the data set with SNU-638; 5.37 in the data set on MCF7. Moreover, the negative-log IC50 (pIC50) is below 4.70 with K562 and 4.75 with HT-1080. The outcome in data set [4] and in data set [5] was inactive.

`O=Nc1c(-c2c(O)[nH]c3ccc([N+](=O)[O-])cc23)[nH]c2ccccc12` gave a pIC50 in data set [2] of 8.13. For the same compound, the solubility – broadly, the concentration that dissolves in the medium under given conditions – in data set [6] was “Insoluble”; in [7], below 100 µg/mL; in [8], below 100 µg/mL; in [9] it was below 100 µg/mL.

As to `O=C1Nc2ccc(OC(F)(F)F)cc2/C1=C1/Nc2ccc(F)cc2/C1=N/O`, the Selectivity ratio in data set [1] was found to be 6. Besides, the pIC50 with KB was 5.42; in data set [2] it was 7.22; in data set [3], 5.82; with A549 it was 4.70; with SNU-638 it was 5.72; in the data set with MCF7, 5.39. The pIC50 is 5.82 with K562 and 5.40 with HT-1080. Further, in data set [4], the Residual activity is 90%.

Regarding `Cc1ccc2c(c1)C(=N/O)/C(=C1/C(=O)Nc3ccc(OC(F)(F)F)cc31)N2`, the pIC50 was 5.09 in the data set on KB; below 4.70 in [3]; below 4.70 with A549; below 4.70 with SNU-638; 5.14 in the data set with MCF7; below 4.70 with K562. In the data set with HT-1080, this compound had a pIC50 below 4.70. Further, the Residual activity in data set [4] worked out at 90%.

Take `O=C1Nc2ccc(OC(F)(F)F)cc2/C1=C1/Nc2ccc(O)cc2/C1=N/O`: the pIC50 with KB is 5.24; in data set [2], 8.08; in data set [3], 5.65; with A549, 4.77; in the data set on SNU-638, 5.53; in the data set with MCF7 it was 5.37. Further, the negative-log IC50 (pIC50) was 5.23 with K562 and 5.64 with HT-1080. The Residual activity in data set [4] worked out at 90%.

As for `O=C1Nc2ccc(Cl)cc2/C1=C1/Nc2ccc(Cl)cc2/C1=N/O`, the Selectivity ratio in data set [1] came to 6. Further, the pIC50 is 4.92 in the data set with KB; 7.95 in data set [2]; 5.73 in [3]; below 4.70 in the data set on A549; 5.59 in the data set with SNU-638; 5.21 in the data set with MCF7. Further, the negative-log IC50 (pIC50) in the data set on K562 was 4.76; with HT-1080, 4.91. Further, in [4], the Residual activity is 90%.

For `Cc1ccc2c(c1)C(=N/O)/C(=C1/C(=O)Nc3ccc(F)cc31)N2`, the pIC50 was 4.97 with KB; below 4.70 in [3]; below 4.70 with A549; 4.94 in the data set with SNU-638; 4.98 in the data set on MCF7; below 4.70 in the data set with K562. The negative logarithm of the IC50 (pIC50) in the data set on HT-1080 was below 4.70. Also, the Residual activity in data set [4] amounted to 90%.

`COc1ccc2c(c1)C(=N/O)/C(=C1/C(=O)Nc3ccc([N+](=O)[O-])cc31)N2`: the pIC50 with KB was below 4.70; in data set [2], 5.53; in data set [3], below 4.70; with A549, below 4.70; with SNU-638, below 4.70; with MCF7, below 4.70. Further, the pIC50 in the data set with K562 and with HT-1080 was below 4.70 each time. For the same compound, the inhibition entry in data set [4] and in data set [5] was “inactive” throughout.

With `Cc1ccc2c(c1)C(=N/O)/C(=C1/C(=O)Nc3ccc([N+](=O)[O-])cc31)N2`, the Selectivity ratio in data set [1] came to 7. In addition, the pIC50 in the data set on KB was 5.68; in data set [2], 8.06; in [3], 5.85; in the data set with A549, below 4.70; with SNU-638, 5.97; in the data set with MCF7, 5.97. Also, the pIC50 with K562 is 6.09; in the data set on HT-1080, 5.41. Further, in data set [4], the Residual activity amounted to 90%.

With `COc1ccc2c(c1)C(=N/O)/C(=C1/C(=O)Nc3ccc(F)cc31)N2`, the pIC50 in the data set on KB is below 4.70; in [2], 5.39; in [3], 5.44; in the data set on A549, 5.17; in the data set with SNU-638 it was 4.87; in the data set on MCF7 it was below 4.70. The pIC50 in the data set on K562 was 5.28; with HT-1080, 5.32. Further, the outcome in [4] and in [5] was inactive.

For the compound `O=C1Nc2ccc(F)cc2/C1=C1/Nc2ccc(F)cc2/C1=N/O`, the Selectivity ratio in data set [1] was 6. Moreover, the pIC50 with KB was 4.88; in data set [2], 8.74; in data set [3] it was 4.87; in the data set on A549, 4.99; in the data set on SNU-638 it was 5.65; in the data set on MCF7 it was 5.18. The pIC50 with K562 was 4.80; in the data set with HT-1080 it was 5.06. The Residual activity in data set [4] came to 90%.

In the case of `O=C1Nc2ccc([N+](=O)[O-])cc2/C1=C1/Nc2ccc(Br)cc2/C1=N/O`, the pIC50 with KB is 5.94; in data set [3], 6.35; in the data set with A549, 4.77; in the data set on SNU-638, 5.94; with MCF7, 6.02; in the data set with K562 it was 6.11. Further, the pIC50 in the data set on HT-1080 was 5.84. Further, the solubility result is “Insoluble” in data set [6], below 100 µg/mL in [7], below 100 µg/mL in data set [8] and below 100 µg/mL in [9].

Take `O=C1Nc2ccc([N+](=O)[O-])cc2/C1=C1/Nc2ccc(F)cc2/C1=N/O`: the Selectivity ratio in data set [1] turned out to be 6. Also, the pIC50 is 6.04 in the data set with KB; 8.77 in data set [2]; 6.55 in [3]; 6.24 in the data set with A549; 6.03 in the data set on SNU-638; 6.04 with MCF7. Also, the values for the pIC50 in the data set with K562 and in the data set with HT-1080 were 6.34 and 6.19, respectively. In data set [4], this compound displayed a Residual activity of 90%.

In the case of `O=C1Nc2ccc(Cl)cc2/C1=C1/Nc2ccc(F)cc2/C1=N/O`, the Selectivity ratio in data set [1] is 6. The pIC50 with KB was 5.04; in data set [2], 8.10; in data set [3], 5.48; in the data set with A549, below 4.70; in the data set with SNU-638 it was 5.20; in the data set on MCF7, 5.15. Moreover, the figures for the pIC50 in the data set on K562 and with HT-1080 were 5.15 and 5.27, respectively. The Residual activity in data set [4] is 90%.

Consider `O=C1Nc2ccc(Cl)cc2/C1=C1/Nc2ccc(O)cc2/C1=N/O`, for which the pIC50 in the data set on KB is 4.99; in data set [2] it was 8.28; in data set [3], 5.45; in the data set on A549, 4.79; in the data set on SNU-638, 5.29; with MCF7, 4.97. Also, the pIC50 was 4.91 in the data set with K562 and 5.53 in the data set on HT-1080. For the same compound, the Residual activity in [4] stood at 90%.

`Cc1ccc2c(c1)C(=N/O)/C(=C1/C(=O)Nc3ccc(Cl)cc31)N2`: the pIC50 in the data set with KB was 5.29; in data set [3], 4.73; in the data set with A549, below 4.70; with SNU-638, 4.90; in the data set with MCF7 it was 5.06; in the data set with K562, below 4.70. For the same compound, the pIC50 in the data set with HT-1080 is below 4.70. For the same compound, the Residual activity in data set [4] came to 90%.

Turning to `COc1ccc2c(c1)C(=N/O)/C(=C1/C(=O)Nc3ccc(OC(F)(F)F)cc31)N2`, the pIC50 was 4.70 with KB; 5.06 in data set [2]; below 4.70 in [3]; below 4.70 in the data set with A549; below 4.70 in the data set on SNU-638; 4.88 with MCF7. The pIC50 with K562 and in the data set with HT-1080 was below 4.70 in each case. Also, the result in data set [4] and in data set [5] was inactive.

As to `O=C1Nc2ccc(F)cc2/C1=C1/Nc2ccc(O)cc2/C1=N/O`, the pIC50 with KB is 5.34; in data set [2], 8.65; in data set [3] it was 5.78; in the data set on A549 it was 5.39; with SNU-638, 5.68; in the data set on MCF7, 5.58. Besides, the figures for the pIC50 with K562 and in the data set with HT-1080 were 5.85 and 6.17, respectively. In [4], this compound had a Residual activity of 90%.
